According to PubChem BioAssay AID2060614 (Molecular Pharmacology Branch, DTP, NCI, 2025):
Several values for one entry are separate records, joined by “and”; a condition that tells them apart may be missing. Identical values can stand only once.

Tested on: 598228-144-R-J1-PDC complex spheroids, viability
Assay: Anticancer human tumor 598228-144-R-J1-PDC patient-derived serous endometrial adenocarcinoma cell line growth inhibition [CLK]
Details: for viability, T/C: stronger effect = lower value
Excerpt: A high-throughput screen of multi-cell type tumor spheroids was designed to identify active combinations of […] and targeted small molecules. Complex spheroids include a stromal component modeled by human endothelial cells (HUVEC) and fibroblasts modeled by human mesenchymal stem cells (MSCs). The concentration ranges selected for each drug and investigational agent were based upon clinically achievable concentrations if the clinical Cmax of the agent was known.
Compounds. The drugs and investigational agents: cirtuvivint (SM08502; NSC835563), CC-671 (NSC850746), vemurafenib (NSC761431), tapotoclax (NSC804041), sotorasib (NSC818433), adagrasib (NSC831453), MRTX-1133 (NSC836407), BAY2416964 (NSC825713), copanlisib (NSC816437), inavolisib (NSC800729), abemaciclib (NSC768073), osimertinib (NSC779217), entinostat (NSC756642), eltanexor (KPT-8602, NSC794443), venetoclax (NSC766270), ceralasertib (NSC777638), bortezomib (NSC756655), olaparib (NSC753686), talazoparib (NSC767125), alisertib (NSC759677), peposertib (NSC802822), gemcitabine (NSC613327), 5-fluorouracil (NSC19893), SN-38 (NSC673596), oxaliplatin (NSC266046), paclitaxel (NSC125973), and doxorubicin (NSC123127), were obtained from the National Cancer Institute (NCI) Developmental Therapeutics Program Chemical Repository. The FDA-approved anticancer drug set is available from the Developmental Therapeutics Program at https://dtp.cancer.gov/organization/dscb/obtaining/available plates.htm. […] The stock solutions were prepared in dimethyl sulfoxide (DMSO, Sigma-Aldrich, St. Louis, MO, cat. D2650), except for the platinum complexes which were prepared in saline (Quality Biological, Gaithersburg, MD, cat. 114-055-101), at 800-fold the tested concentration and stored at -70 degrees C prior to their use. All drugs and investigational agents were tested over a range starting from a high concentration at or near the clinical Cmax and decreasing in half-log increments. If the clinical Cmax for an agent had not been determined, the highest concentration tested was 10 microM.
Cell Culture. All cells were maintained in an incubator at 37 degrees C and 5% CO2 with 95% humidity. The PDC lines were cultured according to standard operating procedures established by the NCI PDMR. Briefly, all PDCs were thawed and cultured in Matrigel-coated flasks prepared with a working solution of 1X Ham's F-12 nutrient mix, without supplementation (Invitrogen, Waltham, MA, cat. 11765054), 100 U/mL penicillin-streptomycin (Invitrogen, cat. 15140122), and 2.5% Matrigel (Corning Inc., Corning, NY, cat. 354248) for the first three passages. The 947758-054-R-J2-PDC line was cultured in 6B/Colon 1A media, which includes advanced DMEM/F-12 (Thermo Fisher Scientific, cat. 12634028), 10 mM HEPES (Thermo Fisher Scientific, cat. 15630080), 1X GlutaMAX supplement (Thermo Fisher Scientific, cat. 35050061), 0.1 mg/mL primocin (InvivoGen, cat. ant-pm-2), 10% defined fetal bovine serum, heat inactivated (HyClone Laboratories Inc., cat. SH30070.03HI), 1.25 mM N-Acetyl-L-cysteine (Sigma-Aldrich, cat. A9165), 10 mM nicotinamide (Sigma-Aldrich, cat. N0636), 1X B-27 supplement (Thermo Fisher Scientific, cat. 17504044), 1X N-2 supplement (Thermo Fisher Scientific, cat. 17502048), and 10 microM Y-27632 dihydrochloride (Tocris Bioscience, cat. 1254). The 876862-298-R-J1-PDC was cultured in 6E media, which includes all 6B/Colon 1A media components plus 50% L-WRN conditioned media (ATCC, cat. CRL-3276), 50 ng/mL recombinant human EGF recombinant protein (hEGF; Thermo Fisher Scientific, cat. PHG0311), 10 ng/mL recombinant human fibroblast growth factor 10 (hGFG-10; PeproTech, cat. 100-26), 1 ng/mL recombinant human fibroblast growth factor 2 (hFGF-2; PeproTech, cat. 100-18B), and 1 µM prostaglandin E2 (PGE2; Tocris, cat. 2296). The 227483-062-R1-J1-PDC line was cultured in Panc media, containing all 6E components except hFGF-2, with the addition of 500 nM SB-431542 (Selleckchem, cat. S1067) and 10 nM gastrin (Tocris, cat. 3006). […]
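Also: spheroids exposed to compounds for seven days before readout.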
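For viability, T/C in this document: 100% = DMSO vehicle control wells.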

Row | Structure (SMILES) | IC50 (curve of compound) | viability, T/C (compound 0.0316 µM) | viability, T/C (compound 0.1 µM) | viability, T/C (compound 0.316 µM) | viability, T/C (compound 1 µM) | viability, T/C (compound 3.16 µM) | viability, T/C (compound 10 µM) | further results
1 | C#Cc1c(F)ccc2cc(O)cc(-c3ncc4c(N5CC6CCC(C5)N6)nc(OCC56CCCN5CC(F)C6)nc4c3F)c12 (stereo unspecified) | > 10000 nM | 99.8% and 98.6% | 101% and 103% | 108% and 112% | 103% and 100% | 102% and 103% | 97.9% and 102% | –
2 | C=C(F)C(=O)N1CCN(c2nc(OCC3CCCN3C)nc3c2CCN(c2cccc4cccc(Cl)c24)C3)CC1CC#N (stereo unspecified) | 4230 nM and 4300 nM | 91% and 112% | 107% and 89.4% | 97.2% and 105% | 109% and 103% | 66.6% and 68.1% | 0.83% and 0.61% | –
3 | C=CC(=O)N1CCN(c2nc(=O)n(-c3c(C)ccnc3C(C)C)c3nc(-c4c(O)cccc4F)c(F)cc23)C(C)C1 (stereo unspecified) | > 10000 nM | 95% and 99.2% | 94.5% and 92.9% | 98.5% and 113% | 108% and 115% | 107% and 117% | 98% and 109% | –
4 | C=CC(=O)Nc1cc(Nc2nccc(-c3cn(C)c4ccccc34)n2)c(OC)cc1N(C)CCN(C)C | > 300 nM | – | – | – | – | – | – | viability, T/C (compound 0.000949 µM): 106% and 86.2%; viability, T/C (compound 0.003 µM): 95.3% and 97.7%; viability, T/C (compound 0.00949 µM): 108% and 95.7%; viability, T/C (compound 0.03 µM): 93.7% and 93.5%; viability, T/C (compound 0.0949 µM): 99.3% and 92.6%; viability, T/C (compound 0.3 µM): 92.1% and 94.7%
5 | CC(CO)NC(=O)c1cc(-c2ccc(Cl)cc2)nn(-c2cnn(C)c2)c1=O (stereo unspecified) | > 10000 nM | 92.9% and 110% | 89.4% and 109% | 98.2% and 116% | 98.4% and 106% | 76.6% and 111% | 89.9% and 73.9% | –
6 | CCN1CCN(Cc2ccc(Nc3ncc(F)c(-c4cc(F)c5nc(C)n(C(C)C)c5c4)n3)nc2)CC1 | > 1000 nM | 92.4% and 109% | 99.5% and 96.7% | 103% and 93.4% | 92.4% and 82.3% | – | – | viability, T/C (compound 0.00316 µM): 99.8% and 91.7%; viability, T/C (compound 0.01 µM): 94.1% and 88%
7 | CNC(=O)c1ccc(Nc2nc(OC3CCCC3)c3c(-c4ccc5nc(C)oc5c4)c[nH]c3n2)c(OC)c1 | – | 89.3% [middle of 4 runs] | – | – | 101% [middle of 12 runs] | 94.7% [middle of 12 runs] | 101% [middle of 12 runs] | IC50 (compound alone, run of 09/19/2023): > 10000 nM
8 | COC1C=CCC(C)C(C)S(=O)(=O)NC(=O)c2ccc3c(c2)N(CC2CCC21)CC1(CCCc2cc(Cl)ccc21)CO3 (stereo unspecified) | 1870 nM and 1810 nM | 106% and 108% | 80.2% and 85.4% | 61% and 66.5% | 55.6% and 58.4% | 56.3% and 56.4% | 34.4% and 20.1% | –
9 | COc1c(OCCCN2CCOCC2)ccc2c3n(c(=NC(=O)c4cnc(N)nc4)nc12)CCN3 | 34.6 nM and 17.5 nM | 52.9% and 45.3% | 34.8% and 27.9% | 19.3% and 14.2% | 8.63% and 7.29% | – | – | viability, T/C (compound 0.00316 µM): 80.5% and 77.9%; viability, T/C (compound 0.01 µM): 65.1% and 53.3%

More lines, main results first:

Row | IC50 (curve of compound) | Structure (SMILES) | viability, T/C (compound 0.0316 µM) | viability, T/C (compound 0.1 µM) | viability, T/C (compound 0.316 µM) | viability, T/C (compound 1 µM) | viability, T/C (compound 3.16 µM) | viability, T/C (compound 10 µM) | further results
10 | 3.7 nM and 4.15 nM | CC(C)CC(NC(=O)C(Cc1ccccc1)NC(=O)c1cnccn1)B(O)O (stereo unspecified) | – | – | – | – | – | – | viability, T/C (compound 0.000949 µM): 96.3% and 107%; viability, T/C (compound 0.003 µM): 60.7% and 68.6%; viability, T/C (compound 0.00949 µM): 1.72% and 2.43%; viability, T/C (compound 0.03 µM): 2.65% and 0.78%; viability, T/C (compound 0.0949 µM): 0.47% and 0.54%; viability, T/C (compound 0.3 µM): 1.72% and 0.37%
11 | > 10000 nM and 8390 nM | CCCS(=O)(=O)Nc1ccc(F)c(C(=O)c2c[nH]c3ncc(-c4ccc(Cl)cc4)cc23)c1F | 95.3% and 98.7% | 119% and 92.2% | 92.5% and 90.5% | 106% and 90.1% | 89.6% and 81.8% | 55.9% and 44.1% | –
12 | 20.8 nM and 12.6 nM | CCc1c2c(nc3ccc(O)cc13)-c1cc3c(c(=O)n1C2)COC(=O)[C@]3(O)CC | 45% and 44.2% | 29% and 22.6% | 16.5% and 15.5% | 4.57% and 6.27% | – | – | viability, T/C (compound 0.00316 µM): 54.7% and 48.2%; viability, T/C (compound 0.01 µM): 61.4% and 56.1%
13 | > 100 nM | Cn1ncnc1[C@H]1c2n[nH]c(=O)c3cc(F)cc(c23)N[C@@H]1c1ccc(F)cc1 | 95.8% and 103% | 76.3% and 84.7% | – | – | – | – | viability, T/C (compound 0.000316 µM): 111% and 95.5%; viability, T/C (compound 0.001 µM): 103% and 114%; viability, T/C (compound 0.00316 µM): 81.5% and 109%; viability, T/C (compound 0.01 µM): 83.8% and 101%
14 | 114 nM and 232 nM | NC(=O)C(=Cn1cnc(-c2cc(C(F)(F)F)cc(C(F)(F)F)c2)n1)c1cncnc1 | – | – | – | – | – | – | viability, T/C (compound 0.00949 µM): 89% and 103%; viability, T/C (compound 0.03 µM): 80.9% and 101%; viability, T/C (compound 0.0949 µM): 52.1% and 86.2%; viability, T/C (compound 0.3 µM): 32% and 38.9%; viability, T/C (compound 0.949 µM): 15% and 30.6%; viability, T/C (compound 3 µM): 18.1% and 21.5%
